Data on four molecules can be found in patent US20190298740A1, “METHODS AND COMPOSITIONS FOR TREATING HALLUCINATIONS AND CONDITIONS RELATED TO THE SAME” (Enterin, Inc., priority 2018, published 2019).

SMILES strings stand for the structures. Entries after “also recorded” stand apart in the source; their conditions may differ.

The conditions of series [1]: cited from earlier work.
For series [2] the following is noted: cited from earlier work. The source holds these as a separate data set.
Series [3] in a line: Aminosterol-induced response after a single oral dose. In kind it is in vivo. Conditions: single 200 mg oral dose.
For series [4] the following is noted: cited from earlier work. This is another data set of the same source.
The test system of series [5] is PD related hallucinations. The settings on record: cited from earlier work.
Series [6] relates to Parkinson's disease patient with hallucinations. The series is described as follows: Case reports: oral squalamine in PD patients with hallucinations (Examples 1-3). In kind it is in vivo, human. An excerpt: MV1, a person with a 13-year history of PD had been suffering from daily visual hallucinations for 5 years. MV1 reported that the hallucinations occurred at night. MV1 was aware that the apparitions were unreal, and they were fully awake when they occurred. The hallucinations consisted mostly of faceless dead relatives who came into their bedroom, sat on their bed, or in a chair, or walked around. […] Sometimes MV1 would shout at the hallucinations to go away and the hallucinations would disappear. MV1 also had tactile hallucinations, causing MV1 to feel that insects such as cockroaches were climbing up their legs. They would bend down and attempt to brush them off their feet and legs. MV1 also had tactile hallucinations of the hands “as if someone was picking at them”. They were not treated with any antipsychotic medication and they didn't take any sleeping pills or sedatives. They also suffered from REM-behavior disorder (RBD), and had thrashing of arms and legs during their sleep. Their spouse had moved out of the bed several years prior because of the thrashing, screaming and hallucinations.
The patient was started on 75 mg squalamine daily. […] They were also sleeping better. […] Subsequently, the dose was increased to 175 mg, and maintained at 175 mg per day for another week or two, before discontinued. […]
NY1, a person with a 5-year history of PD suffered from daily hallucinations. The hallucinations had been occurring for a number of years. The hallucinations occurred any time of day or night.
NY1 was started on squalamine 75 mg daily and then escalated to 100 mg daily. […] They were maintained at 125 mg per day for about a week, after which medication was discontinued. NY1 remained hallucination-free for 9 days following discontinuation.
The patient, a person with a 10-year history of Parkinson's Disease suffered from frequent hallucinations. The hallucinations would occur at night and consist of people roaming around in their bedroom, such as a young person sitting on their bed, or a priest standing by the bed. They were fully awake and aware that the visions were unreal. They also suffered from fragmented sleep and REM-behavior disorder (RBD).
BC was started on a squalamine dose of 75 mg daily, which was increased to a daily dose of 175 mg that was maintained for a 3-month period. […] They described the hallucinations as cooks with white top hats and cleaners in blue uniforms. […] Upon discontinuing the medication, the hallucinations returned. This cycle of stopping and resuming squalamine treatment was repeated three times, and the hallucinations abated every time the squalamine treatment was resumed and hallucinations came back every time squalamine treatment was stopped. A portion of their sleep diary is shown below in Table 2.

As to `CC(C)[C@@H](CC[C@@H](C)[C@H]1CC[C@H]2[C@@H]3[C@H](O)C[C@H]4C[C@@H](NCCCNCCCCN)CC[C@]4(C)[C@H]3CC[C@]12C)OS(=O)(=O)O.C[C@H](O)C(=O)O.C[C@H](O)C(=O)O` [squalamine dilactate salt], the Oral bioavailability result in series [1] (preliminary studies) is “poorly bioavailable orally”. For the same molecule, in series [1] (rodents, subcutaneous and intraperitoneal routes), the Absorption entry is given as “well absorbed”. Besides, in series [2], the Solubility in water result is on record as “highly water soluble”.

Turning to `CC(C)[C@@H](CC[C@@H](C)[C@H]1CC[C@H]2[C@@H]3[C@H](O)C[C@H]4C[C@@H](NCCCNCCCCNCCCN)CC[C@]4(C)[C@H]3CC[C@]12C)OS(=O)(=O)O` [Aminosterol 1436], in series [3], the “Duration of the aminosterol-induced response” value is given as “about 4 days”. Besides, in series [4] (administered parenterally to dogs and rodents), the Weight loss entry is “capable of inducing weight loss”. Moreover, in series [4] (delivered orally), the Anorectic activity entry was “no anorectic activity”.

Take `CC(C)COc1ccc(CNC(=O)N(Cc2ccc(F)cc2)C2CCN(C)CC2)cc1` [Pimavanserin]: the “Improvement over placebo on the SCAD-PD questionnaire” value in series [5] (PD related hallucinations) is 3 point. Moreover, the “Increased mortality (black box warning)” value in series [5] (label) is 11%.

`CC(C)[C@@H](CC[C@@H](C)[C@H]1CC[C@H]2[C@@H]3[C@H](O)C[C@H]4C[C@@H](NCCCNCCCCN)CC[C@]4(C)[C@H]3CC[C@]12C)OS(=O)(=O)O` [squalamine]: the “Time hallucination-free following discontinuation, patient NY1” value in series [6] (after 125 mg per day for about a week) came to 9 days. Moreover, in series [6] (after 175 mg per day), the “Time hallucination-free after discontinuation, patient MV1” value turned out to be 30 days. In addition, the “Hallucinations, patient” value is “vivid hallucinations returned; also recorded: Apparitions back with a vengeance; also recorded: Apparitions, cooks in tall hats; also recorded: Apparitions, cleaning crew in blue uniforms; also recorded: Apparitions, severely disturbed sleep” in series [6] (after stopping squalamine administration); “no hallucinations” in series [6] (oral, 175 mg daily for 3 months); “hallucinations vanished; also recorded: No hallucinations since last entry; also recorded: No hallucinations since restarting” in series [6] (squalamine restarted at 125 mg daily). Further, the “Hallucination frequency, patient NY1” value in series [6] (oral, 100 mg daily, daily hallucinations before) is recorded as “no more than once or twice a week”. Moreover, the “Sleep and RBD, patient MV1” value in series [6] (oral, 125 mg daily) is on record as “continued to improve”. In addition, the “Hallucinations, patient NY1” value in series [6] (oral, 125 mg per day) is reported as “disappeared altogether”. The “Hallucinations, patient MV1” value in series [6] (oral, daily dose increased to 125 mg) is “disappeared completely”; in series [6] (oral, dose increased from 75 mg daily), “hallucinating less frequently”. The “Duration of the aminosterol-induced response” value in series [3] was “about 4 days”.
